Measurements reported in patent publication US6924309B2 (Children, Youth and Women's Health Service Incorporated, priority 1999, dated 2005).
Blank lines part the entries; values can stand above or below the molecule they belong to.

Key:
[1] = Petri-dish thin film autoxidation of arachidonic acid with thia fatty acids and sulfides (HPLC)
How it was run: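 Arachidonic acid mixed with each sulfur compound at different ratios, lauric acid as internal standard, cast as thin films on 80 mm glass Petri-dishes. Dishes kept under oxygen in a dark desiccator; residual compounds quantified after 1, 2, 3, 5 and 7 days by reverse-phase HPLC with refractive index detection.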

[2] = Stability of thia fatty acids and sulfides as thin film under oxygen (1H NMR); type: physicochemical; conditions: darkness, up to six weeks
Procedure: Compounds 110 (4.3 mg) and 106 (6 mg) were each dissolved in 5 ml of dichloromethane and added into 250 ml one-neck flasks. Compound 18 (20 mg) and compounds 19, 108, 109 and 111-112 (14-20 mg) were each dissolved in 10 ml of dichloromethane and added into 500 ml flasks. The solvent dichloromethane was then evaporated with continuous rotation of the flasks, allowing the compounds to form thin films. The flasks were flushed with oxygen, sealed and kept in darkness. The compounds in the flasks were redissolved in chloroform-d and analysed by ^1H NMR every two weeks for up to six weeks.
To examine possible reasons for this lack of antioxidative activity, the chemical stability of compounds 18 and 109 in the absence of arachidonic acid was investigated. For comparison, the stability of compounds 19, 106, 108 and 110-112 was also examined. Each compound was studied as a thin film under oxygen as described above. Samples were removed and analysed by ^1H NMR spectroscopy regularly for up to six weeks. […] This is consistent with compound 109 decomposing in the presence of arachidonic acid, but not alone.

[3] = Thin film autoxidation of arachidonic acid with compounds 16-19 (HPLC)
From the text: Subsequently, the autoxidation of compounds 16-19 and their effects on the autoxidation of arachidonic acid were investigated. In these experiments, a thin film assay method was employed. For each reaction, arachidonic acid was mixed with one of the synthetic compounds 16, 17, 18 or 19 at 1:1 ratio with or without the radical initiator, azobisisobutyronitrile (AIBN). A reverse phase HPLC method was used to simultaneously measure the relative amounts of arachidonic acid and the synthetic compounds 16, 17, 18 or 19 recovered following 60 or 70 hours or 7 days of thin film autoxidation.

[4] = Reaction with tert-butyl hydroperoxide to the sulfoxide; type: physicochemical; conditions: CH2Cl2, RT, after 9 h
From the text: To further investigate the possible involvement of hydroperoxide-induced sulfoxide formation in the antioxidant behaviour of the γ-thia and β-thia fatty acids 18, 19, 106, 108, 109 and 112, compounds 108 and 109 (in a ratio of 1:1 in CH2Cl2) were allowed to react with tert-butyl hydroperoxide. [drawing 37]
The reaction was monitored by TLC and ^1H NMR analysis. […] The ^1H NMR spectrum of compound 114 contains two multiplets at δ2.88-3.07 and two doublets at δ3.63-3.86 corresponding to the methylene protons on the carbons adjacent to sulfur.

[5] = ratio arachidonic acid:compound 1:1, 1 day
[6] = ratio arachidonic acid:compound 1:1, 2 days
[7] = ratio arachidonic acid:compound 1:1, 3 days
[8] = ratio arachidonic acid:compound 1:1, 5 days
[9] = ratio arachidonic acid:compound 1:1, 7 days

Chemical stability in the absence of arachidonic acid [2]: decomposed after 7 days
Structure (SMILES): CCCCC/C=C\C/C=C\C/C=C\C/C=C\CCCCSCC(=O)O [Compound 18, (all-Z)-(eicosa-5,8,11,14-tetraenylthio) acetic acid]
Antioxidant effect on autoxidation of arachidonic acid (in words) [1]: not significantly inhibited
Arachidonic acid (%) recovered following autoxidation in the presence of the compound [1, 5]: 68%
Compound (%) recovered following autoxidation with arachidonic acid [1, 5]: 26%
Arachidonic acid (%) recovered following autoxidation in the presence of the compound [1, 6]: 29%
Compound (%) recovered following autoxidation with arachidonic acid [1, 6]: 7%
Arachidonic acid (%) recovered following autoxidation in the presence of the compound [1, 7]: 10%
Arachidonic acid (%) recovered following autoxidation in the presence of the compound [1, 8]: 7%
Arachidonic acid (%) recovered following autoxidation in the presence of the compound [1, 9]: 5%
Percentage of arachidonic acid recovered in the presence of the compound ([3]; ratio 1:1, 10% AIBN 60 h): 87%
Percentage of compound recovered (with arachidonic acid) ([3]; ratio 1:1, 10% AIBN 60 h): 57%
Percentage of arachidonic acid recovered in the presence of the compound ([3]; ratio 1:1, no additive 70 h): 98%
Percentage of compound recovered (with arachidonic acid) ([3]; ratio 1:1, no additive 70 h): 99%
Percentage of arachidonic acid recovered in the presence of the compound ([3]; ratio 1:1, no additive 7 day): 68%
Percentage of compound recovered (with arachidonic acid) ([3]; ratio 1:1, no additive 7 day): 28%
Autoxidation of arachidonic acid in the presence of the compound (in words) ([3]; ratio 1:1, with or without AIBN): substantial degree of autoxidation

Conversion to the sulfoxide by tert-butyl hydroperoxide [4]: completely converted
Structure (SMILES): CCCCCCCCCCCCCCSCCC(=O)O [Compound 108]
Antioxidant effect on autoxidation of arachidonic acid (in words) [1]: effective antioxidants
Arachidonic acid (%) recovered following autoxidation in the presence of the compound [1, 5]: 98%
Compound (%) recovered following autoxidation with arachidonic acid [1, 5]: 99%
Arachidonic acid (%) recovered following autoxidation in the presence of the compound [1, 6]: 93%
Compound (%) recovered following autoxidation with arachidonic acid [1, 6]: 91%
Arachidonic acid (%) recovered following autoxidation in the presence of the compound [1, 7]: 79%
Compound (%) recovered following autoxidation with arachidonic acid [1, 7]: 86%
Arachidonic acid (%) recovered following autoxidation in the presence of the compound [1, 8]: 30%
Compound (%) recovered following autoxidation with arachidonic acid [1, 8]: 44%
Compound (%) recovered following autoxidation with arachidonic acid [1, 9]: 37%
